US20130040306A1, “BACKSCATTERING INTERFEROMETRIC ANALYSIS OF MEMBRANE MATERIALS” (priority 2011, published 2013)
Entries after “also recorded” stand apart in the source; their conditions may differ.

Experiments:
[1] = molecular target: T1, PLD1.d311 (Homo sapiens, UniProt Q13393); experiment: in vitro PLD activity assay (release of tritiated choline headgroup, lipid vesicles); type: biochemical; details: for IC50: in vitro PLD activity assay
T1 construct: an amino-terminally-truncated and catalytically active construct; made in house; host or cells: SF21 insect cells
T1 sequence (Q13393 312-1074 limits assumed): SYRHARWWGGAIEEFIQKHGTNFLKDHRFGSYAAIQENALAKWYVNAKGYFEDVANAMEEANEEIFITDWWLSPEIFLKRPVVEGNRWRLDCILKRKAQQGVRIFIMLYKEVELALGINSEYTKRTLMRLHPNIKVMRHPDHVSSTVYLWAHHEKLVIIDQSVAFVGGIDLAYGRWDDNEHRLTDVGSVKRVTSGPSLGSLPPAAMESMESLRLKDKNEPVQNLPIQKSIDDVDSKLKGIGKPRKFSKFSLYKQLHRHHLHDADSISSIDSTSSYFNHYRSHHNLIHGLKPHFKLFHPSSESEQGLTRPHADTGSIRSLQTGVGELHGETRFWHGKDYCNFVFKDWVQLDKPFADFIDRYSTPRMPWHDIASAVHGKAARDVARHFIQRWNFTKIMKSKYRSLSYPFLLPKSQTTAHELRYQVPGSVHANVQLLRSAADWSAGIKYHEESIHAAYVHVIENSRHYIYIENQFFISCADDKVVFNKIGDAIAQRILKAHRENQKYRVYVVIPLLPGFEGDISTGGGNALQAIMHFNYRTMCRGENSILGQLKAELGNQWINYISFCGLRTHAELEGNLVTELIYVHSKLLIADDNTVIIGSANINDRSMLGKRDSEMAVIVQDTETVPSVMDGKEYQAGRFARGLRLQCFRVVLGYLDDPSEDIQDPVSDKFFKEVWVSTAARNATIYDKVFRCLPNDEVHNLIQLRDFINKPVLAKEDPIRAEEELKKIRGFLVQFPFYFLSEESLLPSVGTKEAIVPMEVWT
Procedure: In vitro activity assays can be performed to measure changes in Km, and Vmax due to small molecule inhibition. This reconstitution assay uses large unilamellar vesicles (generated by extrusion of defined % mol amounts of purified lipid species) incubated with purified PLD and measures the release of a tritiated choline headgroup as a readout of catalytic activity.
Concentration response curves were generated in a radioisotopically labelled activity assay for three VU-series compounds and tungstate with N-myr-Arf1 activated PLD1.d311. Ki measurements of these inhibitors were obtained using BSI.

[2] = molecular target: T2, PLD1c.d311 (Homo sapiens, UniProt Q13393); experiment: BSI small molecule binding to purified PLD1c.d311 in the absence of lipid; details: for direct binding to purified PLD1c.d311 by BSI: absence of lipid
T2 construct: an amino-terminally-truncated and catalytically active construct; made in house; host or cells: SF21 insect cells
T2 sequence (Q13393 312-1074 limits assumed): T1 sequence (Q13393 312-1074 limits assumed)
Excerpt: Protein constructs that are composed of different domains of the enzyme are thus used to determine the approximate site of small molecule interaction. The bulk of the studies performed thus far use human PLD1c.d311, an amino-terminally-truncated and catalytically active construct that has robust expression in SF21 insect cells, and can be purified to homogeneity over a single affinity chromatography step. This construct does retain a small portion of the pleckstrin homology domain that is necessary for catalytic activity of the enzyme (reason for this is unknown).
Binding studies are performed using backscattering interferometry (BSI), which can be performed on an efficient nanoscale level with a picomolar limit of detection, and can be used to measure Ki and Ks values for inhibitor-treated purified protein.
(§1) For the backscattering interferometry experiments, large-unilamellar lipid vesicles are generated via extrusion for use in interfacial kinetic studies. The composition generally includes 86% mol neutral diluent (36:2 PE or 36:2 PG), 5% mol PI(4,5)P2, and 8% mol 32:0 PC. Following extrusion, bulk lipid concentration is confirmed via quantitative LC/MS. A HeNe laser beam is then directed at a sample in the channel of a microfluidic chip, resulting in an interference fringe pattern that is detected by the CCD camera. This fringe pattern shifts spatially as the refractive index (RI) of the sample changes; these shifts are translated into a numerical change in phase of the corresponding Fourier transformation. The absolute value of the magnitude in phase change corresponds to the change in solvation/hydration of the protein upon binding ligand, and can be used to plot a ligand binding curve. This inventive BSI technique can also accurately and reproducibly measure protein-lipid binding. This technique measures small shifts in RI phase (limit of sensitivity is picomolar) and requires only nanomolar concentrations of protein and ligand in a 1 μl volume channel.

[3] = molecular target: T3, albumin (Homo sapiens, UniProt P02768); experiment: BSI small molecule binding to albumin in the absence of lipid
Excerpt: as §1, with “This technique measures small shifts in RI phase (limit of sensitivity is picomolar) and requires only nanomolar concentrations of protein and ligand in a 1 μl volume channel.” left out
(§2) BSI was used to measure Kd of two VU-series compounds for albumin in the absence of lipid. […] As another control to confirm that vesicle composition is not disrupted due to small molecule treatment, Kd and Ks are measured for PLCδ1, which binds PIP2 at both its PH and catalytic domains.

[4] = molecular target: T3, albumin; experiment: BSI lipid binding (Ks) with albumin after small molecule treatment; details: small molecule treatment vs vehicle
Excerpt: as §1, with “This inventive BSI technique can also accurately and reproducibly measure protein-lipid binding. This technique measures small shifts in RI phase (limit of sensitivity is picomolar) and requires only nanomolar concentrations of protein and ligand in a 1 μl volume channel.” left out
(§3) BSI can also be used to measure changes in lipid binding affinities due to small molecule treatment. BSI-derived values can be compared to Ks values determined using classic biochemical methods.
as §2

[5] = preliminary DMPK plasma protein studies; type: in vitro ADME
[6] = molecular target: T4, PLCδ1 (Homo sapiens, UniProt P51178); experiment: BSI small molecule binding (Kd) to PLCδ1 control; details: control protein
T4 sequence (P51178 1-756): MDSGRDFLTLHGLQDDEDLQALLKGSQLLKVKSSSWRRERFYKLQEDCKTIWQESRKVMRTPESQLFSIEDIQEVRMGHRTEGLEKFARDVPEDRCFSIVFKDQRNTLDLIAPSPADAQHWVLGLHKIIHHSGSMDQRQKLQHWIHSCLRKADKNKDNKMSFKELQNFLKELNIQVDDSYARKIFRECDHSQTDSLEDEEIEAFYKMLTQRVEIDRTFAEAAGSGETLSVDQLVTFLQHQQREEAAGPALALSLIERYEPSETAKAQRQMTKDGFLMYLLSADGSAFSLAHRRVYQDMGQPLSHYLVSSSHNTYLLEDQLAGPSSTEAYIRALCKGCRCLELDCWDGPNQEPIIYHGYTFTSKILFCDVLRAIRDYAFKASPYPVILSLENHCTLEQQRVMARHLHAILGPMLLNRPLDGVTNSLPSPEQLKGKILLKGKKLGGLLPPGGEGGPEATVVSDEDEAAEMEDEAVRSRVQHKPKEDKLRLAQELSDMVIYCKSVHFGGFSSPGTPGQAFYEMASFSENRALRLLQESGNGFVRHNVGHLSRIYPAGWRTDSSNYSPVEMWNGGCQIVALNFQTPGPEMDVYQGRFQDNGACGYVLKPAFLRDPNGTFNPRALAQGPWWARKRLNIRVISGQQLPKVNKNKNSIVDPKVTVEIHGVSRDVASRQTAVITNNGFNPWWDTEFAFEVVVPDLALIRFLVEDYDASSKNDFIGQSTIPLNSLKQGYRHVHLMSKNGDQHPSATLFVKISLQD
Excerpt: as §1, with “This technique measures small shifts in RI phase (limit of sensitivity is picomolar) and requires only nanomolar concentrations of protein and ligand in a 1 μl volume channel.” left out
as §2

[7] = molecular target: T4, PLCδ1; experiment: BSI lipid binding (Ks) of PLCδ1 after small molecule treatment; details: small molecule treatment vs vehicle
Excerpt: as §1, with “This technique measures small shifts in RI phase (limit of sensitivity is picomolar) and requires only nanomolar concentrations of protein and ligand in a 1 μl volume channel.” left out
as §2

[8] = molecular target: T2, PLD1c.d311; experiment: BSI interfacial lipid binding affinity (Ks) of PLD after small molecule treatment; details: small molecule treated enzyme
Excerpt: Eukaryotic PLD is an interfacial enzyme that, in the classic model, binds the lipid surface via interaction with PI(4,5)P2 prior to hydrolyzing substrate. […] In order to study PLD, the interfacial binding affinity must first be measured (Ks), and subsequent studies must saturate lipid binding to force application of Michaelis-Menten kinetics.
For the backscattering interferometry experiments, large-unilamellar lipid vesicles are generated via extrusion for use in interfacial kinetic studies. The composition generally includes 86% mol neutral diluent (36:2 PE or 36:2 PG), 5% mol PI(4,5)P2, and 8% mol 32:0 PC. Following extrusion, bulk lipid concentration is confirmed via quantitative LC/MS. A HeNe laser beam is then directed at a sample in the channel of a microfluidic chip, resulting in an interference fringe pattern that is detected by the CCD camera. This fringe pattern shifts spatially as the refractive index (RI) of the sample changes; these shifts are translated into a numerical change in phase of the corresponding Fourier transformation. […]
as §3

T3 sequence (P02768 25-609, species assumed): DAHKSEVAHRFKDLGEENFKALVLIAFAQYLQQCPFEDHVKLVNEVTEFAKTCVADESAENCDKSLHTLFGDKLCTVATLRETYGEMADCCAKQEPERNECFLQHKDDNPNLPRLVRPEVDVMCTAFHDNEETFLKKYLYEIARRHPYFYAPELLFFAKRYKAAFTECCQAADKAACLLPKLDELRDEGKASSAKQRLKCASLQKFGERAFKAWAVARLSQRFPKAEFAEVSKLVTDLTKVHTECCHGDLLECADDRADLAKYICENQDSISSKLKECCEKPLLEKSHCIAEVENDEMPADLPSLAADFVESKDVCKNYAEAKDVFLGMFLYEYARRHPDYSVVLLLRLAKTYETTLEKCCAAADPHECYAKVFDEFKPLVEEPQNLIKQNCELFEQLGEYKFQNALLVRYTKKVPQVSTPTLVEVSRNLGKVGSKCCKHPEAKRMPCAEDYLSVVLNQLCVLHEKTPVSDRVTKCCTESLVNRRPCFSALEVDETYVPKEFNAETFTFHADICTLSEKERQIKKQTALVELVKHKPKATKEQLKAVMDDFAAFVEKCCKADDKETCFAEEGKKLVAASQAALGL

CC/C(=C(\c1ccccc1)c1ccc(OCCN(C)C)cc1)c1ccccc1 [tamoxifen]
PLD inhibition in vitro (in words) [1]: confirmed to be PLD inhibitors in vitro
IC50 [1]: 48 µM
direct binding to purified PLD1c.d311 by BSI [2]: does not bind
mechanism of PLD inhibition ([2]; concluded from BSI measurements): indirectly inhibit PLD activity

C[C@@H](CN1CCC(n2c(=O)[nH]c3cc(Br)ccc32)CC1)NC(=O)[C@@H]1C[C@H]1c1ccccc1 [VU0359595]
binding to albumin by BSI [3]: bind albumin
Ks compared to vehicle (albumin control) [4]: disrupted compared to vehicle
plasma protein bound [5]: 98%
binding to PLCδ1 by BSI [6]: does not bind
Ks of PLCδ1 compared to vehicle [7]: does not show shifted Ks

O=C(c1ccc(OCCN2CCCCC2)cc1)c1c(-c2ccc(O)cc2)sc2cc(O)ccc12 [raloxifene]
PLD inhibition in vitro (in words) [1]: confirmed to be PLD inhibitors in vitro
IC50 [1]: 10 µM
direct binding to purified PLD1c.d311 by BSI [2]: directly binds the enzyme
direct binding to purified PLD1c.d311 by BSI ([2]; listed as Raloxifene): directly binds the enzyme in the absence of lipid
shift of Ks (interfacial lipid binding) of PLD [8]: shifting Ks; also recorded: shifts Ks

[O]=[W](=[O])([O-])[O-] [tungstate]
Ki (BSI) compared with IC50 (activity assay) ([2]; PLD1.d311, absence of lipid, vs IC50 with N-myr-Arf1 activated PLD1.d311): ≤ 2 fold
direct binding to purified PLD1c.d311 by BSI [2]: directly binds the inhibitors in the absence of lipid
